Laboratory results as given in ChEMBL document CHEMBL1201862, “PubChem BioAssay data set” (2004).
The source made the active and inactive calls.

Legend:
[1] = inhibitors of clade B AD8 Env fusion, dose response, cell-based, cherry-pick (AID 652062); type: functional;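 also: luciferase signal from cell-cell fusion driven by HIV-1 clade B AD8 Env; potency is for inhibitors of fusion seen as a drop in luminescence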
[2] = inhibitors of HIV Env-driven cell fusion, dose response, cherry-pick (AID 652057); type: functional, cell-based
[3] = off-target signal loss in HeLa-CEM21 co-culture – HeLa F-luc CTL cells, cherry-picked, counter-screen for HIV-1 Env fusion inhibitor project, dose response (AID 652040); type: functional, cell-based;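 also: potency for signal decrease marking cytotoxic or nonspecific inhibition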
[4] = ZM109 Env clade C HIV-1 fusion inhibitors, dose response, HeLa effector, CEM target cells, luciferase, cherry-pick (AID 652058); type: functional, cell-based
[5] = target: Phospholipase A2 (Homo sapiens, UniProt P04054); type: functional;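 also: confirmatory dose-response counterscreen on phospholipase A2, testing hits that came from an ultra-high-throughput screen for ATG4B inhibitors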
Chain of Phospholipase A2 (P04054 whole entry): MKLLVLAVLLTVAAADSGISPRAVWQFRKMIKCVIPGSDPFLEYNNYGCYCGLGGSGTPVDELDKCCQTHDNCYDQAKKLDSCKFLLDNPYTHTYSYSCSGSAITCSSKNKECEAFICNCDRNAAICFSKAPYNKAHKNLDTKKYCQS

[6] = target: T1, Cysteine protease ATG4B (Homo sapiens, UniProt Q9Y4P1); type: functional;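 also: Fluorescence-based dose-response confirmation assay measuring inhibition of ATG4B activity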
T1 sequence (Q9Y4P1 whole entry): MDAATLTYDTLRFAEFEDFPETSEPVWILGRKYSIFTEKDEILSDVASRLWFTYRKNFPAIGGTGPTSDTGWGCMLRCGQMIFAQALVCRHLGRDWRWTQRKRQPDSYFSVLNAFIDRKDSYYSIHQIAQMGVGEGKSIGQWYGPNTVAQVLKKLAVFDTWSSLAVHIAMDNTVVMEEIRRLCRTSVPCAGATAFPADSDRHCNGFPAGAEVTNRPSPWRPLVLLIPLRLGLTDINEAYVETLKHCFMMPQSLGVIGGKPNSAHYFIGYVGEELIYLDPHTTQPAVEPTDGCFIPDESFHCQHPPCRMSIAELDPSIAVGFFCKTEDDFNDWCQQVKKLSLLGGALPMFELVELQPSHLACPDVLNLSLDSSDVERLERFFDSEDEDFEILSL

[7] = target: Genome polyprotein (dengue virus type 2, UniProt P29990); test: Dengue-2 NS5 methyltransferase inhibitors, primary screen, biochemical, confirmation dose response (AID 588689); type: functional
Chain of Genome polyprotein (P29990 2492-3391 limits assumed): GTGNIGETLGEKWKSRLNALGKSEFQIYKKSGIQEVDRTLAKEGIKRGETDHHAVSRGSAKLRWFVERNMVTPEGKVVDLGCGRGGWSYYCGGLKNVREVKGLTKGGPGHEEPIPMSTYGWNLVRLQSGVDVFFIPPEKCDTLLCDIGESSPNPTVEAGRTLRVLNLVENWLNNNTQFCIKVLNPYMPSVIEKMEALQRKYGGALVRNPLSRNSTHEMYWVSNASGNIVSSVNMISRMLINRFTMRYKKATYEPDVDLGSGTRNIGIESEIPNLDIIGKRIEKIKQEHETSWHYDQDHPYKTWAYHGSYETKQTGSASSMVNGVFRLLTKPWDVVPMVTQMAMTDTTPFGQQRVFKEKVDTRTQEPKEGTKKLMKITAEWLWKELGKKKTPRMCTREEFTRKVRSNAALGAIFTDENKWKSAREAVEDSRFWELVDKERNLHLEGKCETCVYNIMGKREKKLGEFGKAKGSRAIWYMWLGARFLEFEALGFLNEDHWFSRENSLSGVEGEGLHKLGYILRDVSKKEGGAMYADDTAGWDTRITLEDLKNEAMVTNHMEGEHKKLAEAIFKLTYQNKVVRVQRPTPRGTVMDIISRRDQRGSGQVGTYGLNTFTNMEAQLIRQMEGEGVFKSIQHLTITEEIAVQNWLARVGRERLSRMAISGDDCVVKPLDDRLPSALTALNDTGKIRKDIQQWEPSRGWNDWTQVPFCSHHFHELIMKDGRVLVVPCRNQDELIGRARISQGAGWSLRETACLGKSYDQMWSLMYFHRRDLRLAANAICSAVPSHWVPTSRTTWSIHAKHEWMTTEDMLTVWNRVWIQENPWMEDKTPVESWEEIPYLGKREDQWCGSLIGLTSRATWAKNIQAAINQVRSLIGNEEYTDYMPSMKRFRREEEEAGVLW

[8] = target: Cytochrome P450 2D6 (Homo sapiens, UniProt P10635);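 also: CYP2D6 member of a cytochrome P450 panel assay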
Chain of Cytochrome P450 2D6 (P10635 whole entry): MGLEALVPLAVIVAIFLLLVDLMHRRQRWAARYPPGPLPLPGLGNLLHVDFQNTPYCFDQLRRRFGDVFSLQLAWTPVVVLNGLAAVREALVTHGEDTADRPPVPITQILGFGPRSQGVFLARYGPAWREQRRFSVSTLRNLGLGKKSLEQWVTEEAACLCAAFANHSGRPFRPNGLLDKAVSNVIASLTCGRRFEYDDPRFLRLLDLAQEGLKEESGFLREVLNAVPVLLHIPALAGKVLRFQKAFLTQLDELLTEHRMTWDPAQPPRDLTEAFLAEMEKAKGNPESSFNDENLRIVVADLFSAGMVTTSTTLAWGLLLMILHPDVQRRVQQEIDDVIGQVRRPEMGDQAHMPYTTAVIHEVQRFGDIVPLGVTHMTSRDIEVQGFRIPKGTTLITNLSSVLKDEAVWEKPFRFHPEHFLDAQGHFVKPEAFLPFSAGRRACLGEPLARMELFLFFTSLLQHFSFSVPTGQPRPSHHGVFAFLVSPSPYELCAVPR

[9] = target: Cytochrome P450 2C9 (Homo sapiens, UniProt P11712)
Chain of Cytochrome P450 2C9 (P11712 whole entry): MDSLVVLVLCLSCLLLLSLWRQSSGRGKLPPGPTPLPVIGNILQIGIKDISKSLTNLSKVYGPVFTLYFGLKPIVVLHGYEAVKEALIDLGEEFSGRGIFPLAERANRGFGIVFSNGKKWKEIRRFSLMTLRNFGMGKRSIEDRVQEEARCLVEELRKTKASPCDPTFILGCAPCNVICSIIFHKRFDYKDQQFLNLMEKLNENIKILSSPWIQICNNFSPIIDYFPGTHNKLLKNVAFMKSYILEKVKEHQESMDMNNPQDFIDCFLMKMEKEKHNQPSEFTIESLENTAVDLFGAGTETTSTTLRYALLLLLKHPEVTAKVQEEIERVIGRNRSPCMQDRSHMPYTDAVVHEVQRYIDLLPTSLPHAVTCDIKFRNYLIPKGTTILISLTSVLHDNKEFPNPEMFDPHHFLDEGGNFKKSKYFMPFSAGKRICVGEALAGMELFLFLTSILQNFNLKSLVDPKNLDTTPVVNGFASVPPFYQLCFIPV

[10] = target: T2, Cytochrome P450 3A4 (Homo sapiens, UniProt P08684);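 also: CYP3A4 tested as one member of a cytochrome P450 panel screen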
T2 sequence (P08684 whole entry): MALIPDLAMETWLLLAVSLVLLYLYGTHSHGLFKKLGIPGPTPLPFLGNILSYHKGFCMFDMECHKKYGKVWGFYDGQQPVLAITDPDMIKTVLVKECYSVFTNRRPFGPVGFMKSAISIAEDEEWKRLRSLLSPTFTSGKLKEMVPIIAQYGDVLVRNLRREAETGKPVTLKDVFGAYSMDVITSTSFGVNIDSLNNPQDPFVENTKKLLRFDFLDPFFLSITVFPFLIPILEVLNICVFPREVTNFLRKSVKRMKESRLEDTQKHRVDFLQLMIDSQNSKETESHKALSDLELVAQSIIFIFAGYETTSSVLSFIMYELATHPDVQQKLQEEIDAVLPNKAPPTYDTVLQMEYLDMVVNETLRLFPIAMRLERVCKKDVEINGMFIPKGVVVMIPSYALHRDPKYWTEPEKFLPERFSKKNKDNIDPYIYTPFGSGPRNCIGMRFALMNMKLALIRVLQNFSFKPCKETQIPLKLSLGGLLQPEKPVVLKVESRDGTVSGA

[11] = cytotoxicity in OVCAR8 ovarian cancer cells, dose response, PAX8 project, cell-based, plate reader, dry powder samples (AID 743197); type: functional; conditions: OVCAR-8
[12] = target: Paired box protein Pax-8 (Homo sapiens, UniProt Q06710); test: inhibitors of PAX8-driven TPO luciferase reporter, dose response, RMG-I cells, cherry-pick (AID 687027); type: functional, cell-based;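 also: luciferase reporter driven by Pax8 target thyroperoxidase promoter measured by SteadyGlo luminescence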
Chain of Paired box protein Pax-8 (Q06710 whole entry, the tested form may be a part): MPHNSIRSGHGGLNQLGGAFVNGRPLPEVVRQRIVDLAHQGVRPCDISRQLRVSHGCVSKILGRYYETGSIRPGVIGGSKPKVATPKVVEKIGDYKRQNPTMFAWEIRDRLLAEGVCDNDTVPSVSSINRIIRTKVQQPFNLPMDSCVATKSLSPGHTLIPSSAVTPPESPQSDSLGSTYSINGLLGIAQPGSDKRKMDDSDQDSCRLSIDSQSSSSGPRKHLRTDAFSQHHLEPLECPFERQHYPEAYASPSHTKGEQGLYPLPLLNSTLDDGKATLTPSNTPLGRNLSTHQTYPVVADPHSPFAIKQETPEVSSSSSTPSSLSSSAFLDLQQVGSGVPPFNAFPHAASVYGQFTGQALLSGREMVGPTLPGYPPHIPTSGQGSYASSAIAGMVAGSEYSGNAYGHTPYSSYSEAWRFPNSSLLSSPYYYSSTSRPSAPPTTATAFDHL

[13] = target: T3, Carboxy-terminal domain RNA polymerase II polypeptide A small phosphatase 1 (Homo sapiens, UniProt Q9GZU7); test: inhibitors of CTDSP1, concentration-response testing, biochemical assay, absorbance-based, actives from ultra-high-throughput screening (AID 540297); type: functional
T3 sequence (Q9GZU7 whole entry): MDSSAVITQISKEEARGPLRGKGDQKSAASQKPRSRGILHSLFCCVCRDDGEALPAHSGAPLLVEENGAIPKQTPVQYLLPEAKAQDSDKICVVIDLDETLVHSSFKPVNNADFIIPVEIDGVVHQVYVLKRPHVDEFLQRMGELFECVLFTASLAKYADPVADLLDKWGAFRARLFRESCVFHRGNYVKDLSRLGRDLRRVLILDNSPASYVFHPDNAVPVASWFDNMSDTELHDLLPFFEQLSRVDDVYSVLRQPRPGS

[14] = cytotoxicity toward NIH3T3 fibroblasts, dose response, counter-screen, cell-based, ATP luminescence, mouse fibroblasts (AID 2010); type: functional;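 also: cells exposed to compound for about 90 hours before reading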
[15] = Vero E6 cell cytotoxicity, dose response, cytotoxicity control for non-replicating M. tuberculosis project, secondary assay (AID 492998); type: functional, VeroE6; conditions: Vero C1008
[16] = cells; type: functional
[17] = THP-1 cell cytotoxicity, dose response, cytotoxicity control for non-replicating M. tuberculosis project (AID 489025); type: functional
[18] = inhibitors of intracellular T. cruzi replication, confirmation, NIH3T3 host cells, beta-gal luminescence (AID 2044); type: functional, cell-based;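 also: intracellular parasites grown in NIH/3T3 mouse fibroblasts as host cells; luminescent beta-galactosidase reporter signal from transgenic T. cruzi replicating inside host cells; inhibitors lower the luminescence signal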
[19] = target: T2, Cytochrome P450 3A4; remark: listed apart in the source
[20] = target: T4, Rac GTPase-activating protein 1 (Homo sapiens, UniProt Q9H0H5); test: MgcRacGAP GTPase-activating activity inhibitors, confirmation, biochemical, ADP Hunter fluorescence, primary and confirmatory (AID 624330); type: functional
T4 sequence (Q9H0H5 whole entry): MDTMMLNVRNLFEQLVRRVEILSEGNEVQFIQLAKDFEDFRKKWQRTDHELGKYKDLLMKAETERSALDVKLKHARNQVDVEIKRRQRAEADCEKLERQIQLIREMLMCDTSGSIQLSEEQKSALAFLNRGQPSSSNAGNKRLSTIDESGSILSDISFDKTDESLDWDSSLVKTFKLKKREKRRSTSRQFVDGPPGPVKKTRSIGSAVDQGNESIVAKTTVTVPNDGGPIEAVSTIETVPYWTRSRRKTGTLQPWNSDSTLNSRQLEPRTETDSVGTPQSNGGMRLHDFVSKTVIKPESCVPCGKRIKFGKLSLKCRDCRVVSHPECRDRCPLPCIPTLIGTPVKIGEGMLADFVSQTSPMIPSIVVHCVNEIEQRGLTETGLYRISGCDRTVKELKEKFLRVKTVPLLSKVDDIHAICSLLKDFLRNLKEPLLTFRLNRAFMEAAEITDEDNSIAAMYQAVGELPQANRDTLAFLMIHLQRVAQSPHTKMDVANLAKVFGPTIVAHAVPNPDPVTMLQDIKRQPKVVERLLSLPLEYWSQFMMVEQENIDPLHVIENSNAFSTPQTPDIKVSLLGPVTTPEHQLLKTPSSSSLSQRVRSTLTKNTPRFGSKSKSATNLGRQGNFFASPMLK

[21] = target: Cytochrome P450 2C19 (Homo sapiens, UniProt P33261); test: Cytochrome panel assay with activity outcomes. Panel member name: p450-cyp2c19 Compounds with AC50 equal or less than 10 uM are considered active; type: functional; conditions: read-out: AC50
Chain of Cytochrome P450 2C19 (P33261 whole entry): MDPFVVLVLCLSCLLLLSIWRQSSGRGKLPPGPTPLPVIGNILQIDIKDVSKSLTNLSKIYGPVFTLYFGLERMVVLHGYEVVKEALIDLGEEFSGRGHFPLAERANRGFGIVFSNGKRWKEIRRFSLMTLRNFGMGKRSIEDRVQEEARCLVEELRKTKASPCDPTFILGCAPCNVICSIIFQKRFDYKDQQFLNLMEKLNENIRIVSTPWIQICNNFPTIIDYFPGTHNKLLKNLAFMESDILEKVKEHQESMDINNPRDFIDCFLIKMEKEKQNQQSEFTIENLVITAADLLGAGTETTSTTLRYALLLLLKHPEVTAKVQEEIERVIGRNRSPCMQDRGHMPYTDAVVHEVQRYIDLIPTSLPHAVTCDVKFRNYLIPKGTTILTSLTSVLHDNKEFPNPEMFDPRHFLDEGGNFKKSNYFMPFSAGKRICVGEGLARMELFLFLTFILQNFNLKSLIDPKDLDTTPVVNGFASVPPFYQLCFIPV

Structure (SMILES): Cc1cccc(N2C(=O)N3[C@H](c4ccc(Br)cc4)[C@@H]4C(=O)N(C(C)(C)C)C(=O)[C@@H]4[C@]3(C)C2=O)c1
- AC50 [1]: 1.69 µM (active)
- AC50 [2]: 0.48 µM (active)
- AC50 [3]: 0.936 µM (active)
- AC50 [4]: 0.746 µM (active)

Structure (SMILES): COc1cc(NS(=O)(=O)c2ccc(Nc3nc(-c4cccc([N+](=O)[O-])c4)cs3)cc2)nc(OC)n1
- IC50 [5]: 9.57 µM (active)
- IC50 [6]: 11.3 µM (active)

Structure (SMILES): CCOc1cc(/C=C2/SC(=S)N(CC(=O)O)C2=O)ccc1OC(=O)c1cccs1
- IC50 [7]: 56.3 µM (active)

Structure (SMILES): CCN(CC)c1nc2ccccc2[nH]1.Cl
- AC50 [8]: 25.1 µM (inconclusive)
- AC50 [9]: inconclusive

Structure (SMILES): c1ccc2c(CSCCc3ccncc3)cccc2c1
- AC50 [10]: inconclusive

Structure (SMILES): C=CCN([C@@H](CC(C)C)C(=O)OC)S(=O)(=O)N(CC=C)[C@@H](CC(C)C)C(=O)OC
- AC50 [1]: 25.9 µM (active)
- AC50 [2]: 6.72 µM (active)
- AC50 [3]: 21 µM (active)
- AC50 [4]: 24.7 µM (active)

Structure (SMILES): C[C@H](CO)N1C[C@H](C)[C@H](CN(C)Cc2ccc(-c3ccccc3)cc2)Oc2ccc(NS(=O)(=O)c3ccc(F)cc3)cc2CC1=O
- AC50 [11]: > 70 µM (inactive)
- AC50 [12]: 27.1 µM (active)

Structure (SMILES): C[C@@H]1CCCCO[C@H](CN(C)Cc2ccc3c(c2)OCO3)[C@@H](C)CN([C@@H](C)CO)C(=O)c2cc(NS(=O)(=O)c3ccc(Cl)cc3)ccc2O1
- AC50 [11]: > 70 µM (inactive)
- AC50 [12]: 9.45 µM (active)

Structure (SMILES): O=C(N/N=C/c1ccco1)C1CC1c1ccccc1 (stereo unspecified)
- IC50 [13]: 9.59 µM (active)

Structure (SMILES): CCOC(=O)c1c(NC=C2C(=O)CC(C)(C)CC2=O)sc(C)c1C
- IC50 [5]: 5.12 µM (active)
- IC50 [6]: 5.45 µM (active)

Structure (SMILES): O=C(N/N=C/c1ccc([N+](=O)[O-])s1)c1cccnc1
- EC50 [14]: > 60 µM (not active)
- CC50 [15]: 14.6 µM (active)
- IC50 [16]: 11.2 µM (active)
- CC50 [17]: 14.9 µM (active)
- EC50 [18]: 0.429 µM (active)

Structure (SMILES): Cc1cc(C(=O)c2cnc(/N=C/N(C)C)s2)cc(C)c1O
- AC50 [19]: 25.1 µM (inconclusive)
- IC50 [20]: 108 µM (active)
- AC50 [8]: 25.1 µM (inconclusive)
- AC50 [21]: 25.1 µM (inconclusive)
- AC50 [9]: inconclusive
